{
  "source": "patent US20050272704A1",
  "about": "“Compounds, compositions and methods for stabilizing transthyretin and inhibiting transthyretin misfolding” (priority 2004, published 2005)",
  "origin": "cited, not measured here",
  "note": "Read-outs that look alike come from different tables or passages of the source.",
  "data": [
    {"smiles": "O=C(O)c1cc(-c2ccc(F)cc2F)ccc1O", "note": "[diflunisal]", "values": [
      {"measurement": "diflunisal concentration in blood", "setting": "4 h after a single 500 mg dose", "value": "> 300", "unit": "µM"},
      {"measurement": "diflunisal concentration in blood", "setting": "20 h after a single 500 mg dose", "value": "exceed 30 μM"}
    ]}
  ]
}
